Experimental data: ChEMBL document CHEMBL3045326, “Avocadofurans and their tetrahydrofuran analogues: comparison of growth inhibitory and insecticidal activity” (2000)
Calls of active or inactive are those of the source. No cut-off for these calls is given here.

How the values were obtained:
Spodoptera exigua [1] = experiment: Insecticidal activity against Spodoptera exigua larvae assessed as inhibition of larval growth at 5 umol/g of diet administered through compound containing diet after 7 days; format: functional
Spodoptera exigua [2] = experiment: Insecticidal activity against young Spodoptera exigua larvae assessed per ug of diet; format: functional
Spodoptera exigua [3] = experiment: Insecticidal activity against older Spodoptera exigua larvae assessed per ug of diet; format: functional
Spodoptera exigua [4] = experiment: Insecticidal activity against Spodoptera exigua larvae assessed as induction of larval mortality at 5 umol/g of diet administered through compound containing diet after 7 days; format: functional, organism-based

| SMILES | growth inhibition (GI) (Spodoptera exigua [1]) | LC50 (Spodoptera exigua [2]) [µM] | LC50 (Spodoptera exigua [3]) [µM] | Activity (Spodoptera exigua [4]) |
| --- | --- | --- | --- | --- |
| CCCCCCCCCCCCCCCC1CCCO1 (stereo not drawn) [2-PENTADECYLTETRAHYDROFURAN] | 45% | – | – | – |
| CCCCCCCCCCCCCCCCC1CCCO1 (stereo not drawn) | inactive | – | – | – |
| CCCCCCCCCCCCCCCc1ccco1 | 98% | ≥ 2 | > 3 | Active |
| CCCCCCCCCCCCCCCCCCC1CCCO1 (stereo not drawn) | Active | – | – | – |
| CCCCCCCCCCCCCCCCCC1CCCO1 (stereo not drawn) [2-(HEPTADECYL)TETRAHYDROFURAN] | 59% | – | – | – |
| CCCCCCCCCCCCCCCCCc1ccco1 [2-(HEPTADECYL)FURAN] | 93% | ≥ 2 | > 3 | Active |
| CCCCCCCCCCCCCCC1CCCO1 (stereo not drawn) | inactive | – | – | – |
